Results on 15 substances are retold here after patent US9290529B2, “Carbonic anhydrase inhibitors and method of their production” (USTAV ORGANICKE CHEMIE A BIOCHEMIE AKADEMIE VED CESKE …, priority 2011, dated 2016).

Common to all, as to format: cell-based, human
In assay [1] the test system is HCT116 cells. The assay is described as follows: Flow cytometric measurement of intracellular pH (pHi), HCT116 expressing CAIX. Conditions: for pHi: HCT116, carboranes at 1 μM, 24 hour incubation, control 7.516; for intracellular acidification in HCT116 cells: carboranes 1 μM versus acetazolamide 50 μM. The method, then: The effect of carborane CAIX (carbonic anhydrase IX) inhibitors was evaluated on colorectal cancer cell line HCT116 expressing CAIX enzyme versus CA IX negative cell line of T-lymphoblastic leukemia CCRF-CEM. Acetazolamide, a known inhibitor of CAIX, was used as a standard. HCT116/CCRF-CEM cells were cultivated in McCoy/RPMI Media supplemented with 10% FCS and antibiotics and seeded at high density ([…] per 3.5 cm dish) to induce pericellular hypoxia and thus stimulate CA IX expression. Measurement of pHi was assessed as described in Cianchi et al. [Cianchi F., et al. Selective inhibition of carbonic anhydrase IX decreases cell proliferation and induces […] apoptosis in human cancer cells. The Journal of Pharmacology and Experimental Therapeutics, 2010, Vol. 334, No. 3, 710-719].
[…] The pHi was measured by flow cytometry in cell cultures pretreated with 10 μM of pH sensitive probe carboxyseminaphtorhoda-fluor-1-acetoxymethyl ester (SNARF, Invitrogen, CA) for 15 min at 37° C. After incubation, the cells were washed twice with PBS. Because the addition of bicarbonate can affect pHi, all incubation and cell washes were performed in bicarbonate-free buffer. SNARF was excited at 488 nm and emitted at 580 and 640 nm. The ratio of the emission wavelengths at 640/580 nm was then used to estimate the pHi from a calibration curve. The calibration curve was prepared by nigericin clamp technique. In this method, after the SNARF labeling of untreated cells, aliquots of cell suspensions were re-suspended in a high potassium containing buffer at specific pH (usually 6.8, 7.0, 7.2, 7.4, 7.6 and 7.8). The cell suspensions were then clamped at a specific pH value by the addition of 0.03 μM nigericin (Sigma-Aldrich). Nigericin is a ionophore that allows the exchange of H for K ions, thus abolishing the pH gradient across the cell membrane. When the internal and external K concentrations are approximately equal, the pH rapidly equilibrates to the pH of the bathing solution. A total of 20,000 events were acquired on a FACS ARIA II flow cytometer (Becton. Dickinson) for further analysis.
The fluorescent ratio values (640/580 nm) calculated for each pH point were further used to construct calibration curve in Prism software (GraphPad Software, Inc., San Diego, Calif.), from which the pHi values in treated cells were determined (Table 3).
(Flow cytometry measures light scatter and fluorescence of single cells or particles in a stream.)

For assay [2], the system named is HCT116. The assay is described as follows: MTT cytotoxicity assay, HCT116. Conditions: 72 h. The source says: (§1) One of the parameters used as the basis for colorimetric assays is the metabolic activity of viable cells. For example, a microtiter assay which uses the tetrazolium salt MTT is now widely used to quantitate cell proliferation and cytotoxicity (Hájduch et al., Cytotechnology, 19, 1996, 243-245). For instance, this assay is used in drug screening programs and in chemosensitivity testing. Because tetrazolium salts are cleaved only by metabolically active cells, these assays exclusively detect viable cells. In the case of the MTT assay, yellow soluble tetrazolium salt is reduced to a coloured water-insoluble formazan salt. After it is solubilized, the formazan formed can easily and rapidly be quantified in a conventional ELISA plate reader at 570 nm (maximum absorbancy). The quantity of reduced formazan corresponds to the number of vital cells in the culture.
(§2) All cells were purchased from the […] (ATCC), unless otherwise indicated: the CEM line are highly chemosensitive T-lymphoblastic leukemia cells, K562 cells were derived from patient with […] with bcr-abl translocation, A549 line is lung adenocarcinoma, HCT116 is colorectal tumor cell line and its p53 gene knock-down counterpart (HCT116p53−) is a model of human cancers with p53 mutation frequently associated with poor prognosis. The daunorubicin resistant subline of CEM cells (CEM-DNR bulk) and paclitaxel resistant subline K562-tax were selected in our laboratory by the cultivation of maternal cell lines in increasing concentrations of daunorubicine or paclitaxel, respectively (Noskova et al., Neoplasma 49, 2002, 418). The CEM-DNR bulk cells overexpress MRP-1 protein, while K562-tax cells overexpress P-glycoprotein, both proteins belong to family of ABC transporters and are involved in primary and/or acquired multidrug resistance phenomenon (Noskova et al., Neoplasma 49, 2002, 418). The cells were maintained in Nunc/Corning 80 cm^2 plastic tissue culture flasks and cultured in cell culture medium (DMEM/RPMI 1640 with 5 g/l glucose, 2 mM glutamine, 100 U/ml penicillin, 100 μg/ml streptomycin, 10% fetal calf serum, and NaHCO3).
(§3) This assay was performed according to Hajduch et al., Anti-Cancer Drugs 10, 1997, 1007. Cell suspensions were prepared and diluted according to the particular cell type and the expected target cell density (2 500-30 000 cells/well based on cell growth characteristics). Cells were added by pipette (80 μl) into 96-well microtiter plates. Inoculates were allowed a pre-incubation period of 24 h at 37° C. and 5% CO2 for stabilization. Four-fold dilutions, in 20-μl aliquots, of the intended test concentration were added to the microtiter plate wells at time zero. All test compound concentrations were examined in duplicate. Incubation of the cells with the test compounds lasted for 72 h at 37° C., in a 5% CO2 atmosphere at 100% humidity. At the end of the incubation period, the cells were assayed using MTT. Aliquots (10 μl) of the MTT stock solution were pipetted into each well and incubated for a further 1-4 h. After this incubation period the formazan produced was dissolved by the addition of 100 μl/well of 10% aq SDS (pH=5.5), followed by a further incubation at 37° C. overnight. The optical density (OD) was measured at 540 nm with a Labsystem iEMS Reader MF. Tumor cell survival (TCS) was calculated using the following equation: TCS=(ODdrug-exposed well/mean ODcontrol wells)×100%. The TCS50 value, the drug concentration lethal to 50% of the tumor cells, was calculated from appropriate dose-response curves.

The test system of assay [3] is CCRF-CEM. Nature of the assay: MTT cytotoxicity assay, CCRF-CEM. Conditions: 72 h.
Source text: as §1, §2, §3
On the technique in general: Formazan colour is commonly taken as a measure of viable cells.

In general, IC50 refers to the concentration that gives 50% inhibition. “1-methylenesulfamide-1,7-dicarba-closo-dodecaborane [CB-19]”: the pHi in assay [1] stood at 7.542. In addition, the IC50 amounted to 89.3 ± 3.3 µM in assay [2] and 71.9 ± 3.7 µM in assay [3].

Consider “1-methylenesulfamide-3,3′-commo-bis(1,2-dicarba-3-cobalta(III)-closo-dodecabor)ate (1-) [CB-5]”, for which the pHi in assay [1] stood at 7.483. Further, the IC50 is 75.3 ± 4.1 µM in assay [2] and 85.4 ± 22.6 µM in assay [3].

On to “1-methylenesulfamide-9-phenyl-1,2-dicarba-closo-dodecaborane and 1-methylene-sulfamide-12-phenyl-1,2-dicarba-closo-dodecaborane [CB-8]”, for which the pHi in assay [1] worked out at 7.112. For the same substance, in assay [1], the “intracellular acidification in HCT116 cells” value (shortened to “intracellular acidification”) is “better than acetazolamide”. In addition, the IC50 in assay [2] stood at 97.4 ± 3.4 µM; in assay [3] it was 73.4 ± 6.8 µM.

“1-methylensulfamide-1,2-dicarba-closo-dodekaborane [CB-1]” had a pHi in assay [1] of 7.561. Further, the IC50 in assay [2] is 63.9 ± 5.7 µM; in assay [3] it was 61.8 ± 10.6 µM.

In assay [1], “1-sulfamide-closo-1-carbadodecaborate (1-) [CB-3]” returned a pHi of 7.479. The IC50 in assay [2] and in assay [3] was at least 100 µM in each case.

“7-methylensulfamide-8-phenyl-(7,8-nido-dikarbaundekabor)ate (1-) [CB-6]”: in assay [1], the pHi was determined as 7.192 and the “intracellular acidification” value is “better than acetazolamide”. For the same substance, the IC50 in assay [2] amounted to 78.4 ± 17 µM. Half-maximal inhibition in assay [3] (IC50) was put at 20.2 ± 1.7 µM.

As for “7-methylensulfamide-(7,8-nido-dicarbaundekaborate) (1-) [CB-2]”, the pHi in assay [1] is listed as 7.572. The same substance displayed an IC50 in assay [2] of at least 100 µM.

Take “8-butyloxysulfamide-3,3′-commo-bis(decahydro-1,2-dicarba-3-cobalta(III)-closo-dodekabor)ate (1-) [CB-16]”: the pHi in assay [1] is recorded as 7.563. Further, the figures for the IC50 in assay [2] and in assay [3] were 84.8 ± 3 µM and 89.9 ± 6 µM, respectively.

Turning to “8-diethyleneoxysulfamide-3,3′-commo-bis(decahydro-1,2-dicarba-3-cobalta(III)-closo-dodekabor)ate (1-) [CB-17]”, the pHi in assay [1] came out at 7.571. Further, the IC50 in assay [2] is at least 100 µM; in assay [3], 95.1 ± 5 µM.

“8-ethylaminomethylsulfamide-8″-methoxy-3,3′-commo-bis(decahydro-1,2-dicarba-3-cobalta(III)-closo-dodecabor)ate (1-) [CB-15]”: in assay [1], the pHi is 7.343 and the “intracellular acidification” value was “better than acetazolamide”. Moreover, it took 16.6 ± 0.2 µM to reach half-maximal inhibition in assay [2] (IC50). In assay [3], this substance gave an IC50 of 17.3 ± 1.2 µM.

The substance “8-methylensulfamide-8″-methoxy-3,3′-commo-bis(1,2-dicarba-3-cobalta(III)-closo-dodecabor)ate (1-) [CB-4]” registered a pHi in assay [1] of 7.538. For the same substance, the IC50 was determined as 69.2 ± 3 µM in assay [2] and 61.7 ± 17.8 µM in assay [3].

As for “8-propylenesulfamide-7-phenyl-(7,8-nido-dicarbaundecabor)ate (1-) [CB-13]”, in assay [1], the pHi is recorded as 7.51. Also, the figures for the IC50 in assay [2] and in assay [3] were 55.5 ± 1.8 µM and 62 ± 3 µM, respectively.

With “9-sulfamide-9′-amine-2,2′-commo-bis(1,7,9-trikarba-2-ferra(II)-kloso-dodekabor)ane [CB-12]”, the pHi in assay [1] is reported as 7.704. Further, the IC50 in assay [2] and in assay [3] was at least 100 µM in each case.

In turn, “10-sulfamide-9′-amine-2,2′-commo-(1,7,10-tricarba-1′,7′,9′-tricarba-2-ferra (II)-closo-dodekabor)ane [CB-10]” returned a pHi in assay [1] of 7.688. Also, the IC50 in assay [2] stood at 96.4 ± 4.5 µM; in assay [3], 79.5 ± 22.7 µM.

With “Di(methylenesulfamide)-1,7-dicarba-closo-dodecaborane [CB-20]”, the pHi in assay [1] stood at 7.561. In addition, the IC50 in assay [2] turned out to be 99.6 ± 1.1 µM; in assay [3], 84.5 ± 5.3 µM.
